The values below come from the supplement of paper PMC9265050, “Inhibition of RNA Binding in SND1 Increases the Levels of miR-1-3p and Sensitizes Cancer Cells to Navitoclax” (Cancers, 2022).

This assay relates to SW480. In words: drug sensitivity score (DSS, integrated dose-response area); higher = more sensitive (stronger viability reduction); extreme values may be limits of the assay. Summed up: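 After 7 days of induction with 0.1 µg/mL doxycycline, SW480 cells stably harbouring inducible control or SND1-targeting shRNA were plated at 1000 cells per well in 384-well plates preloaded with 525 small-molecule inhibitors at five concentrations. CellTiter-Glo viability readings were taken 72 h later. Drug sensitivity scores come from integrating the area under a fitted non-linear dose–response model.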

Where [1] appears, read: shRNA: SND1 shRNA1 (SND1 silenced).
Setting [2] is: shRNA: SND1 shRNA2 (SND1 silenced).
Where [3] appears, read: shRNA: control shRNA (non-targeting).

Structures are written as SMILES.

Consider `S=P(N1CC1)(N1CC1)N1CC1` [Thio-TEPA], for which the drug sensitivity score is, setting by setting: under setting [1], 0 DSS; under setting [2], 0 DSS; under setting [3], 0 DSS.

With `Nc1nc2[nH]cnc2c(=S)[nH]1` [Thioguanine], the drug sensitivity score reads like this: under setting [1], 9.3 DSS; under setting [2], 5.9 DSS; under setting [3], 8.4 DSS.

As for `O=c1sn(-c2cccc3ccccc23)c(=O)n1Cc1ccccc1` [Tideglusib], the drug sensitivity score reads like this: under setting [1], 0.1 DSS; under setting [2], 1.2 DSS; under setting [3], 0.1 DSS.

For `Cn1cncc1[C@@](N)(c1ccc(Cl)cc1)c1ccc2c(c1)c(-c1cccc(Cl)c1)cc(=O)n2C` [Tipifarnib], the drug sensitivity score was found to be 8.8 DSS under setting [1], 8.7 DSS under setting [2] and 10.2 DSS under setting [3].

`O=C1NC(=O)[C@@H](c2cn3c4c(cccc24)CCC3)[C@@H]1c1c[nH]c2ccccc12` [Tivantinib]: the drug sensitivity score runs as follows: under setting [1], 6.4 DSS; under setting [2], 4 DSS; under setting [3], 5.4 DSS.

In the case of `COc1cc2nccc(Oc3ccc(NC(=O)Nc4cc(C)on4)c(Cl)c3)c2cc1OC` [Tivozanib], the drug sensitivity score by setting is: under setting [1], 3.8 DSS; under setting [2], 3.6 DSS; under setting [3], 5 DSS.

For the compound `C[C@@H]1CCN(C(=O)CC#N)C[C@@H]1N(C)c1ncnc2[nH]ccc12` [Tofacitinib], the drug sensitivity score by setting is: under setting [1], 0 DSS; under setting [2], 0 DSS; under setting [3], 0 DSS.

For `CC[C@@]1(O)C(=O)OCc2c1cc1n(c2=O)Cc2cc3c(CN(C)C)c(O)ccc3nc2-1` [Topotecan], the drug sensitivity score under setting [1] worked out at 11.3 DSS, the drug sensitivity score under setting [2] was 8.8 DSS and the drug sensitivity score under setting [3] is 9.7 DSS.

For `CN(C)CCOc1ccc(/C(=C(/CCCl)c2ccccc2)c2ccccc2)cc1` [Toremifene], the drug sensitivity score by setting is: under setting [1], 2.6 DSS; under setting [2], 1.7 DSS; under setting [3], 3.1 DSS.

As to `CC(C)C[C@@H](C(=O)N[C@H](C(=O)OC1CCCC1)c1ccccc1)[C@H](O)C(=O)NO` [Tosedostat], the drug sensitivity score reads like this: under setting [1], 4.4 DSS; under setting [2], 3.2 DSS; under setting [3], 3.2 DSS.

For the compound `Cc1cc(Nc2cc(N3CCN(C)CC3)nc(Sc3ccc(NC(=O)C4CC4)cc3)n2)n[nH]1` [Tozasertib], the drug sensitivity score is, setting by setting: under setting [1], 8.6 DSS; under setting [3], 4.8 DSS.

On to `CC(=O)Nc1cccc(-n2c(=O)n(C3CC3)c(=O)c3c(Nc4ccc(I)cc4F)n(C)c(=O)c(C)c32)c1` [Trametinib], for which the drug sensitivity score runs as follows: under setting [1], 19.3 DSS; under setting [2], 12.7 DSS; under setting [3], 8.1 DSS.

In the case of `CC1=C(/C=C/C(C)=C/C=C/C(C)=C/C(=O)O)C(C)(C)CCC1` [Tretinoin], the drug sensitivity score reads like this: under setting [1], 0 DSS; under setting [2], 0 DSS; under setting [3], 0 DSS.

With `NC(=S)N/N=C/c1ncccc1N` [Triapine], the drug sensitivity score is, setting by setting: under setting [1], 2.8 DSS; under setting [3], 2.4 DSS.

For the compound `O=C(CCCCCCC(=O)Nc1ccc([C@H]2O[C@@H](CSc3nc(-c4ccccc4)c(-c4ccccc4)o3)C[C@@H](c3ccc(CO)cc3)O2)cc1)NO` [Tubacin], the drug sensitivity score runs as follows: under setting [1], 4.1 DSS; under setting [2], 2.7 DSS; under setting [3], 6.2 DSS.

For the compound `CN1CCc2c(c3ccccc3n2Cc2ccc(C(=O)NO)cc2)C1` [Tubastatin A], the drug sensitivity score was 4.3 DSS under setting [1], 5 DSS under setting [2] and 6.4 DSS under setting [3].

With `CN[C@@H]1C[C@H]2O[C@@](C)([C@@H]1OC)n1c3ccccc3c3c4c(c5c6ccccc6n2c5c31)C(=O)N[C@H]4O` [UCN-01], the drug sensitivity score runs as follows: under setting [1], 24 DSS; under setting [2], 25 DSS; under setting [3], 25.4 DSS.

For the compound `COC(=O)c1ccc2c(c1)[nH]c1ncnc(NCCCN3CCCCC3)c12` [UM729], the drug sensitivity score is 1.8 DSS under setting [1], 2.8 DSS under setting [2] and 3.3 DSS under setting [3].

Turning to `O=C(O)CSc1cc(NS(=O)(=O)c2ccc(Br)cc2)c2ccccc2c1O` [UMI-77], the drug sensitivity score runs as follows: under setting [1], 14.5 DSS; under setting [2], 13.4 DSS; under setting [3], 15.8 DSS.

For the compound `COc1cc2c(NC3CCN(C(C)C)CC3)nc(C3CCCCC3)nc2cc1OCCCN1CCCC1` [UNC0638], the drug sensitivity score by setting is: under setting [1], 9.1 DSS; under setting [2], 6.5 DSS; under setting [3], 9.7 DSS.

In the case of `COc1cc2c(NC3CCN(C(C)C)CC3)nc(N3CCC(F)(F)CC3)nc2cc1OCCCN1CCCC1` [UNC0642], the drug sensitivity score by setting is: under setting [1], 4.7 DSS; under setting [2], 8.7 DSS; under setting [3], 8.4 DSS.

Turning to `O=C(c1ccc(C(=O)N2CCC(N3CCCC3)CC2)c(Nc2ccccc2)c1)N1CCC(N2CCCC2)CC1` [UNC1215], the drug sensitivity score stood at 2.6 DSS under setting [1], 1.9 DSS under setting [2] and 1.1 DSS under setting [3].

For the compound `CCCCNc1ncc(C(=O)NCc2ccc(-n3ccnc3)cc2)c(NC2CCC(O)CC2)n1` (stereo not given) [UNC2881], the drug sensitivity score reads like this: under setting [1], 0 DSS; under setting [2], 0 DSS; under setting [3], 0 DSS.

For the compound `NC(=O)c1cccc(-c2cccc(OC(=O)NC3CCCCC3)c2)c1` [URB597], the drug sensitivity score by setting is: under setting [1], 0.2 DSS; under setting [3], 2.6 DSS.

Take `CC(C)Nc1cc(-c2c[nH]c(C(=O)N[C@H](CO)c3cccc(Cl)c3)c2)c(Cl)cn1` [Ulixertinib]: the drug sensitivity score reads like this: under setting [1], 10.2 DSS; under setting [2], 2.3 DSS; under setting [3], 7.6 DSS.

The compound `Cn1ncc(Cl)c1-c1cc(C(=O)N[C@H](CN)Cc2ccc(F)c(F)c2)oc1Cl` [Uprosertib] yielded a drug sensitivity score under setting [1] of 0 DSS, a drug sensitivity score under setting [2] of 0.3 DSS and a drug sensitivity score under setting [3] of 0.2 DSS.

`Oc1ncc(N(CCCl)CCCl)c(O)n1` [Uramustine]: the drug sensitivity score under setting [1] was 0 DSS, the drug sensitivity score under setting [2] is 0.1 DSS and the drug sensitivity score under setting [3] worked out at 0 DSS.

Take `CS(=O)(=O)c1ccc(-c2cnc(N)c(C(=O)Nc3ccccc3)n2)cc1` [VE-821]: the drug sensitivity score was 0 DSS under setting [1] and 0.8 DSS under setting [3].

For `O=C(O)CC1CC(c2ccccc2)=NO1` (stereo not given) [VGX-1027], the drug sensitivity score runs as follows: under setting [1], 0.2 DSS; under setting [2], 2.3 DSS; under setting [3], 0 DSS.

For the compound `CNC(=O)c1ccccc1Nc1cc(Nc2ccc(N3CCOCC3)cc2OC)ncc1C(F)(F)F` [VS-4718], the drug sensitivity score runs as follows: under setting [1], 4.8 DSS; under setting [2], 3.8 DSS; under setting [3], 4.1 DSS.

`O=c1ncn2nc(Sc3ccc(F)cc3F)ccc2c1-c1c(Cl)cccc1Cl` [VX 745]: the drug sensitivity score reads like this: under setting [1], 1.4 DSS; under setting [3], 3.4 DSS.

On to `CCCC(CCC)C(=O)O` [Valproic acid], for which the drug sensitivity score was 0 DSS under setting [1] and 0 DSS under setting [3].

In the case of `CCCCC(=O)OCC(=O)[C@]1(O)Cc2c(O)c3c(c(O)c2[C@@H](O[C@H]2C[C@H](NC(=O)C(F)(F)F)[C@H](O)[C@H](C)O2)C1)C(=O)c1c(OC)cccc1C3=O` [Valrubicin], the drug sensitivity score turned out to be 8.7 DSS under setting [1], 7.8 DSS under setting [2] and 8.2 DSS under setting [3].

As to `COc1cc2/c(=N/c3ccc(Br)cc3F)nc[nH]c2cc1OCC1CCN(C)CC1` [Vandetanib], the drug sensitivity score under setting [1] came to 2.1 DSS, the drug sensitivity score under setting [2] stood at 5.8 DSS and the drug sensitivity score under setting [3] turned out to be 5.9 DSS.

As for `CCc1c(C(=O)C(N)=O)c2c(OCC(=O)O)cccc2n1Cc1ccccc1` [Varespladib], the drug sensitivity score reads like this: under setting [1], 0 DSS; under setting [2], 1.1 DSS; under setting [3], 0 DSS.

In the case of `C[C@@H]1COC(Nc2ccc3ncnc(Nc4ccc(OCc5nccs5)c(Cl)c4)c3c2)=N1` [Varlitinib], the drug sensitivity score is 0.4 DSS under setting [1], 1.2 DSS under setting [2] and 3.5 DSS under setting [3].

Turning to `Clc1ccc(Nc2nnc(Cc3ccncc3)c3ccccc23)cc1` [Vatalanib], the drug sensitivity score under setting [1] stood at 1.8 DSS, the drug sensitivity score under setting [2] turned out to be 6.5 DSS and the drug sensitivity score under setting [3] was found to be 2 DSS.

For `C[C@]1(c2nc3c(C(N)=O)cccc3[nH]2)CCCN1` [Veliparib], the drug sensitivity score stood at 0 DSS under setting [1], 0 DSS under setting [2] and 0 DSS under setting [3].

Take `CCCS(=O)(=O)Nc1ccc(F)c(C(=O)c2c[nH]c3ncc(-c4ccc(Cl)cc4)cc23)c1F` [Vemurafenib]: the drug sensitivity score came out at 0 DSS under setting [1], 0.1 DSS under setting [2] and 0 DSS under setting [3].

`CC1(C)CCC(CN2CCN(c3ccc(C(=O)NS(=O)(=O)c4ccc(NCC5CCOCC5)c([N+](=O)[O-])c4)c(Oc4cnc5[nH]ccc5c4)c3)CC2)=C(c2ccc(Cl)cc2)C1` [Venetoclax]: the drug sensitivity score is, setting by setting: under setting [1], 0 DSS; under setting [2], 0 DSS; under setting [3], 0 DSS.

For the compound `O=C(/C=C\n1cnc(-c2cc(C(F)(F)F)cc(C(F)(F)F)c2)n1)NNc1ccccn1` [Verdinexor], the drug sensitivity score reads like this: under setting [1], 8 DSS; under setting [2], 4.5 DSS; under setting [3], 8.6 DSS.

As to `CC[C@]1(O)C[C@@H]2CN(CCc3c([nH]c4ccccc34)[C@@](C(=O)OC)(c3cc4c(cc3OC)N(C)[C@H]3[C@@](O)(C(=O)OC)[C@H](OC(C)=O)[C@]5(CC)C=CCN6CC[C@]43[C@@H]65)C2)C1` [Vinblastine], the drug sensitivity score runs as follows: under setting [1], 9.6 DSS; under setting [2], 8 DSS; under setting [3], 15.4 DSS.
